Laboratory results published in article PMC11407758, “Integrated stress response (ISR) activation and apoptosis through HRI kinase by PG3 and other p53 pathway-restoring cancer therapeutics” (Oncotarget, 2024).

Key:
Assay type in all cases: cell-based, human
p53 protein = assay: Western blot, p53 protein levels
Procedure: Cells were treated for 24 h with indicated compounds, concentrations and cell lines. Abbreviations: S.E.: Short exposure; L.E.: Long exposure.
(§1) After treatment, protein lysates were collected for Western blot analysis. A total of 15 μg of protein was used for SDS-PAGE. After primary and secondary antibody incubations, the signal was detected by a chemiluminescence detection kit, imaged by Syngene (Imgen Technologies). Antibodies for NAG-1 (GDF15) and P53 were from Santa Cruz Biotechnology; for caspase 8, cleaved caspase 8, caspase 9, caspase 3, cleavage PARP, eIF2α, p-eIF2α (Ser51), CHOP, ATF4, DR5, and PUMA were from Cell Signaling Technology. Noxa and p21 were from Calbiochem. Ran was from BD Biosciences.

DR5 = assay: Western blot, DR5 induction; settings: five cell lines, 24 h
Procedure: Figure 4 Activation of ATF4 and up-regulation of typical p53 target genes. (A–E) Western blot analysis of p53 protein levels and upregulation of ATF4, PUMA, DR5 and p21. Cells were treated for 24 h with indicated compounds, concentrations and cell lines. Abbreviations: S.E.: Short exposure; L.E.: Long exposure.
as §1

[1] = system: GCN2, PKR, eIF2α, ATF4, CHOP in HT29 cells; assay: Western blot, ISR kinases / eIF2α / ATF4 / CHOP; settings: HT29, 15 h
Procedure: Figure 7 PG3 induces upregulation of ATF4 through ISR via HRI. (A) HT29 cells were treated with PG3, GSK2606414, TG and ONC201 respectively, or co-treatment with PG3/GSK2606414, PG3/TG, and PG3/ONC201 for 15 h. (B) MEF, MEF^PERK−/− and MEF^GCN2−/− cells were treated with PG3 and ONC201 for 16 hours. (C) HT29 cells were transfected with siControl, siPKR, siHRI and siPKR/siHRI for 24 hours and then treated with PG3 for 16 hours. (D) HCT116 p53^−/− cells were transfected with siControl and siHRI for 24 hours and then treated with PG3 for 16 hours. (E) HCT116 p53^−/− cells were treated with PG3 and ONC201 for indicated times. (F) PANC1-sgCtrl, -sgHRI and -sgPKR cell lines were treated with PG3 and imipridones (ONC201, ONC206 and ONC212) for 16 hours. Western blot was performed using indicated antibodies. (G) Proposed model of PG3-induced cell apoptosis through HRI/ATF4/PUMA axis. Abbreviation: L.E.: Long exposure.
as §1
(§2) Supplementary Figure 2: ROS and NO are not responsible for PG3-induced HRI activation. (A, B) cells were pre-treated
(§3) with ZnPP, L-NMMA, SA and NAC for 2 hours respectively, and then ONC201 or PG3 was added to the medium for 24 hour treatment.
(§4) Western blot was performed using indicated antibodies.
(§5) (1 picture or pasted object on this page, not shown here)

ALAS1, UROD = assay: Western blot, heme biosynthesis enzymes
Procedure: Figure 8 Inhibition of heme biosynthesis leads to upregulation of ATF4. (A) HT29 cells were treated with SA and ONC201 for 20 hours. Western blotting was performed using the indicated antibodies. (B) HT29 cells were transfected with siCtrl, siHRI, siClpX, siALAS1, siClpX/siALAS1 and siClpX/siALAS1/siHRI for 48 hours. (C) HT29 cells were transfected with siCtrl, siLonP1, siClpP for 24 or 48 hours respectively, and then treated with ONC201 for 24 hours. (D) Proposed model of ONC201-induced cell apoptosis through ClpP/ALAS1/HRI/ATF4 axis. (E, F) Silencing of ClpP in HCT116 p53^−/− and MDA-MB-468 cells and then treated with PG3, PG3-Oc and ONC201. Western blot was performed using indicated antibodies.
as §1, §2, §3, §4, §5

CCc1c(C)[nH]c(/C=C2\N=C(c3ccc[nH]3)C=C2OC)c1C [PG3]
wild-type p53 protein level (p53 protein; HCT116, 24 h): do not upregulate expression | endogenous mutant p53 R273H protein level (p53 protein; HT29, 24 h): no effects on stability | endogenous mutant p53 R175H protein level (p53 protein; TOV-112D, 24 h): no effects on stability | exogenous mutant p53 R175H protein level (p53 protein; engineered HCT116-R175H cells, 24 h): stabilize | upregulation of DR5 (DR5): consistently induce upregulation | phosphorylation of GCN2 and PKR [1]: does not increase phosphorylation | ALAS1 protein level (ALAS1, UROD; 24 hour treatment): does not lead to the downregulation of ALAS1 | UROD protein levels (ALAS1, UROD; western blot): do not have any effects
